A short description of test [1]: Evaluated for binding constant with antigen meso-tetrakis (4-carboxyphenyl)porphyrin (TCPP) at 20% methanol content.
Test [2] is described as follows: Evaluated for binding constant with antigen meso-tetrakis (4-carboxyphenyl)porphyrin (TCPP) at 15% methanol content.
A short description of test [3]: Evaluated for binding constant with antigen meso-tetrakis (4-carboxyphenyl)porphyrin (TCPP) at 0% methanol content.
Test [4] can be described thus: Evaluated for binding constant with antigen meso-tetrakis (4-carboxyphenyl)porphyrin (TCPP) at 35% methanol content.
The nature of test [5]: Evaluated for binding constant with antigen meso-tetrakis (4-carboxyphenyl)porphyrin (TCPP) at 5% methanol content.
Test [6] can be described thus: Evaluated for binding constant with antigen meso-tetrakis (4-carboxyphenyl)porphyrin (TCPP) at 30% methanol content.
Test [7] is described as follows: Evaluated for binding constant with antigen meso-tetrakis (4-carboxyphenyl)porphyrin (TCPP) at 40% methanol content.

For the compound `CC[C@H](C)[C@H](NC(=O)[C@H](CCCN=C(N)N)NC(=O)CNC(=O)Cc1ccc2ccc3cccc4ccc1c2c34)C(=O)N[C@H]1CSSC[C@H](C(=O)N[C@H](C(=O)N[C@@H](CCCCN)C(=O)N[C@@H](Cc2ccc(O)cc2)C(N)=O)[C@H](C)O)NC(=O)CNC(=O)[C@H](CC(N)=O)NC(=O)[C@@H](C)NC(=O)[C@@H]2CCCN2C1=O`, the Ka was 140000 M⁻¹ in test [1]; 260000 M⁻¹ in test [2]; 680000 M⁻¹ in test [3]; 15000 M⁻¹ in test [4]; 420000 M⁻¹ in test [5]; 70000 M⁻¹ in test [6]. In test [7], this compound displayed a Ka of 9700 M⁻¹.
